According to the METLIN SMRT retention time set (Domingo-Almenara et al. 2019):

Assay: gradient 5% acetonitrile 3 min, to 50% in 2 min, to 85% in 15 min, held 3 min, 100 µL/min
Details: column: Zorbax Extend-C18 2.1 x 50 mm; eluents: water / acetonitrile, 0.1% formic acid
Method in brief: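 The system's dead and dwell volumes were 40 μL and 900 μL, with a Zorbax Extend-C18 column (2.1 × 50 mm, 1.8 μm) run at 100 μL/min in water and acetonitrile containing 0.1% formic acid each. Pure standards were analyzed in mixtures of ~100 molecules by HPLC–quadrupole time-of-flight mass spectrometry in positive and negative ionization mode. Retention time was assigned from computationally picked, manually inspected adduct peaks.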

RP-LC retention time [s] | SMILES
1090 | CC1=NS(=O)(=O)N(Cc2ccccc2)C=C1C(=O)OCc1ccccc1
795 | Cc1nnc(N2CCCC(C(=O)NC(C)c3ccccc3)C2)c2nn(-c3ccc(Cl)cc3)c(C)c12 (configuration not stated)
701 | Cc1ccc(C(=O)Nc2c(-c3ccc(F)cc3)nc3ccccn23)cc1[N+](=O)[O-]
854 | O=C(CSc1ccc(-c2ccc3c(c2)OCO3)nn1)c1cccs1
1050 | CCC(Sc1nnc2c(n1)[nH]c1ccccc12)C(=O)Nc1nc(-c2ccccc2)cs1 (configuration not stated)
847 | O=C(NCCC(c1ccccc1)c1ccccc1)c1cnc2sccn2c1=O
833 | CCOC(=O)CNc1nc(-c2cccc([N+](=O)[O-])c2)nc2ccccc12
798 | Cc1cccc(NC(=O)COc2cccc3c(=O)n(C)ccc23)c1
865 | CCOc1ccc(-c2csc3c(=O)n(Cc4ccccn4)cnc23)cc1OCC
701 | Cc1ccn2cc(-c3ccc(NS(=O)(=O)c4ccc(I)cc4)cc3)nc2n1
589 | CCN(CC)CCNC(=O)c1cc2n(n1)CC(C)(C(=O)NCc1ccc(F)cc1)N(C)C2=O (configuration not stated)
692 | CCOc1cc(-c2cccc(Cl)c2)nc2ccc(C(=O)N3CCN(c4ccccn4)CC3)cc12
883 | CNS(=O)(=O)c1ccc(Cl)c(-c2nnc(-c3ccc(OC)cc3)o2)c1
922 | O=C(COc1ccccc1)N1CCN(C(=O)c2nnn3c2COC(c2ccc(Cl)cc2)C3)CC1 (configuration not stated)
726 | CCc1ccc(CNC(=O)CCCN2C(=O)CCn3nc(C)cc32)cc1
654 | O=c1ccc(N2CCCC(NS(=O)(=O)Cc3ccccc3)C2)n[nH]1 (configuration not stated)
613 | CCN(CCN(C)C)c1ccc(C(=O)O)cc1NS(=O)(=O)c1ccc(F)cc1
636 | O=C(Cn1cnc(-c2cccs2)cc1=O)NCCn1nc(-c2ccco2)ccc1=O
582 | O=c1ccc(-c2ccncc2)nn1CCCNS(=O)(=O)/C=C/c1ccccc1
794 | O=C(CCn1cnc2cc(-c3noc(/C=C/c4ccccc4Cl)n3)ccc21)N1CCOCC1
793 | C[C@H]1CN(C(=O)COc2ccc(F)cc2)C[C@@H]1c1nc(-c2ccncc2)no1
758 | CCc1noc(NC(C)=O)c1-c1ccc(OC)c(S(=O)(=O)NCc2ccc(OC)cc2)c1
686 | Brc1ccc(-c2ccc(CNCc3cccnc3)o2)c(Br)c1
879 | CCN1C(=O)COc2ccc(-c3noc(C4CC(=O)N(c5ccccc5)C4)n3)cc21 (configuration not stated)
1040 | C=C(C)CNc1nc(-c2ccccc2)c(-c2ccccc2)s1
832 | CCOC(=O)C1C(=O)C(C(=O)OCC)C(c2ccccc2)NC1c1ccccc1 (configuration not stated)

Further lines, the compound ahead of its results:

SMILES | RP-LC retention time [s]
Cc1ccc(CNC(=O)Cn2cnc3nc(N4CCCC(C(=O)NC5CC5)C4)sc3c2=O)cc1 (configuration not stated) | 743
CN1CCN(C(=O)c2nnc(-c3ccc(S(=O)(=O)N4CCCCC4)cc3)o2)CC1 | 654
CNC(=O)c1csc(NC(=O)Cc2ccc(OC)cc2)n1 | 634
OC(CN1CCN(c2ccc(F)cc2)CC1)c1ccc2c(c1)OCO2 (configuration not stated) | 635
O=C(CN1C(=O)C2CCCCN2c2ccc(C(=O)N3CCCCC3)cc21)NC1CCCC1 (configuration not stated) | 828
Cc1cccc(C)c1NC(=O)N1CCCC1c1nncn1C1CCCC1 (configuration not stated) | 722
COc1ccc2nc(NC3=NCN(Cc4cccnc4)CN3)nc(C)c2c1 | 560
O=C(c1ccoc1)N1CCCC1c1nc(C2CCOCC2)no1 (configuration not stated) | 670
CCOC(=O)c1cc(S(=O)(=O)N2CCN(c3ncccn3)CC2)[nH]n1 | 766
CCCNC(=O)C1CCCN(c2ccc(SCC(=O)Nc3cc(F)ccc3Cl)nn2)C1 (configuration not stated) | 748
Cc1cc2nc(C(F)(F)F)c(=O)n(C(C)C(=O)NCc3ccco3)c2cc1C (configuration not stated) | 756
CS(=O)(=O)N1CCCc2cc(C(=O)N3CCOCC3)ccc21 | 654
Cc1noc([C@@H]2CC(F)(F)CN2C(=O)c2cc(C)[nH]n2)n1 | 604
Cc1nn2c(CNC(=O)c3ccc(C)c(C)c3)c(C)nc2s1 | 650
Cn1c(=O)sc2cc(S(=O)(=O)N3CCC(C(=O)NC4CCCC4)CC3)ccc21 | 777
Cc1noc2ncnc(N3CCCC(C(=O)N4CCN(C5CCCCC5)CC4)C3)c12 (configuration not stated) | 594
Cc1c(Cl)cccc1NC(=O)c1cccc([N+](=O)[O-])c1O | 975
CCOC(=O)C(C)Sc1ccc(NC(=O)c2ccco2)nn1 (configuration not stated) | 759
COc1ccc(NC(=O)c2noc3c2CCCC3)cc1OC | 842
C=CCN1C(=O)CC(Nc2ccc(CC)cc2)C1=O (configuration not stated) | 846
CCOCCCNC(=O)N1CCc2cc(-c3ccc(C(=O)N4CCOCC4)cc3)ccc21 | 608

SMILES | RP-LC retention time [s]
O=C(NCC1CCN(C(=O)c2cc3ccccc3o2)CC1)C(=O)NCC1CCCO1 (configuration not stated) | 691
Cc1ccccc1NC(=O)C1CCCN1S(=O)(=O)c1cc2c(cc1C)NC(=O)CO2 (configuration not stated) | 763
CN1CCN(c2c(C(=O)c3ccccc3)cnc3cc4c(cc23)OCO4)CC1 | 560
Cc1ccc(C(=O)N2CCC(n3c(-c4ccoc4)nc4cccnc43)C2)cc1C (configuration not stated) | 806
O=C(O)C1CCN(C(=O)CCc2c[nH]c3ccccc23)CC1 | 662
CCOC(=O)C1CCCN(c2c(NCC3COc4ccccc4O3)c(=O)c2=O)C1 (configuration not stated) | 796
CNC(=O)N1CCc2ccc(C(=O)NC(C)C)cc21 | 625
Cc1nc2cccnc2n1C1CCN(C(=O)Nc2ccc3c(c2)OCO3)CC1 | 613
O=C(CCC1CCCN(S(=O)(=O)c2cccc(F)c2)C1)NC1CCCCC1 (configuration not stated) | 936
Cc1nnc(-c2cccnc2N2CCN(C(=O)c3ccsc3)CC2)o1 | 675
COCCCNC(=O)C1c2cc(OC)c(OC)cc2C(=O)N(C)C1c1cccs1 (configuration not stated) | 676
CC(C)(NC(=O)c1cccs1)C(=O)N1CCN(c2ccccc2)CC1 | 687
CCCCNC(=O)C1CCCN1C(=O)c1ccc(NC(=O)C(C)(C)C)cc1 (configuration not stated) | 693
C/C=C(\CCC1NCCc2c1[nH]c1ccccc21)[Si](C)(C)C (configuration not stated) | 815
O=C(Nc1ccc2c(c1)OCCO2)C1CN(S(=O)(=O)C2CC2)CC12CCCCC2 (configuration not stated) | 881
Cc1cc(C)nc(N2CCN(c3cc(C)nc4c(C)c(-c5ccc(Cl)cc5)nn34)CC2)n1 | 1020
Cc1nc(C(=O)N2CCCn3ccnc3C2C(C)C)co1 (configuration not stated) | 556
CCc1cc(=O)n(CC(=O)Nc2cccc(C)c2C)c(N2CCOCC2)n1 | 764
Cc1cc(C)c2c(N3CCCCC3)nc(C(=O)NCCN3CCOCC3)nc2n1 | 550
Cc1ccc(CN2C(=O)Cn3cccc3C2C(=O)NC2CCCC2)cc1 (configuration not stated) | 892
